Laboratory results published in patent US9796711B2, “Substituted pyrazolo[3,4-b]pyridin-6-carboxylic acids and method of use” (AbbVie S.àr.l., priority 2015, dated 2017).

Biological target: T1, ΔF508-CFTR (Homo sapiens, UniProt P13569, DEL508-508)
T1 construct: host or cells: CFBE41o-, doxycycline-inducible
Experiment: CFTR cell surface levels using HRP-tagged ΔF508-CFTR expressing CFBE cells, in the presence of a co-corrector
Assay type: cell-based
Details: HRP-tagged ΔF508-CFTR expressing CFBE cells, in the presence of 3 μM co-corrector; for EC50: read-out: EC50
Excerpt: Measuring CFTR Cell Surface Levels Using HRP-Tagged AF508-CFTR Expressing CFBE Cells
The HRP-tagged AF508-CFTR cell assay measures the expression of CFTR-ΔF508 at the plasma membrane. CFTR-ΔF508 has a folding defect leading to absence of protein at the plasma membrane. This assay is used to evaluate the capacity of compounds to increase the expression of CFTR-ΔF508 at the plasma membrane. The CFTR-ΔF508 is tagged with HRP (horse radish peroxidase enzyme) within the ECL4 (Extracellular loop 4) of CFTR (Phuan, P.-W. et al. Synergy-based small-molecule screen using a human lung epithelial cell line yields AF508-CFTR correctors that augment VX-809 maximal efficacy. Mol. Pharmacol. 86, 42-51 (2014)). When HRP-tagged AF508-CFTR is present at the plasma membrane, the HRP enzyme activity can be measured. The amount of CFTR-ΔF508 that can be rescued to the plasma membrane is correlated with the amount of functional enzyme that can be measured.
There are several ways to measure the capacity of compounds to rescue CFTR-ΔF508 to the plasma membrane; either compounds are evaluated on their own and the impact on plasma membrane levels is measured or compounds are evaluated in combination with a co-corrector, i.e. a compound that rescues CFTR-ΔF508 to the plasma membrane but rescue can be enhanced by addition of compounds due to a complementary mode of action.
Activity of Compounds in Combination with Co-Corrector:
For this purpose doxycycline-inducible AF508-CFTR-HRP expressing CFBE4lo-cells (obtained from Gergely Lukacs, McGill University) were maintained in MEM (Minimum Essential Medium, Gibco; 31095) supplemented with 10% fetal bovine serum (Hyclone; SV30160.03) under puromycin (3 μg/mL) and G418 selection (0.2 mg/mL). For compound testing, cells were seeded at 4000 cells/well in white 384-well plates (Greiner; 781080) in 50 μL of medium containing 0.5 μg/mL doxycycline and incubated for 68 hours at 37° C., 5% CO2. On day four, 10 μL of test compounds diluted in PBS (phosphate buffered saline) were added to the plates at a final DMSO concentration of 0.1%. In order to measure compound synergy with a co-corrector, 3 μM co-corrector (3-[(2R,4R)-4-({[1-(2,2-difluoro-1,3-benzodioxol-5-yl)cyclopropyl]carbonyl}amino)-7-methoxy-3,4-dihydro-2H-chromen-2-yl]benzoic acid) was added along with test compounds. All compound plates contained negative controls (DMSO) and positive controls (3 μM co-corrector). Cell plates were incubated at 33° C., 5% CO2 for 20 hours. On day five, the cells were washed five times with phosphate-buffered saline, and HRP activity was assayed by the addition of 50 μL/well of HRP substrate (SuperSignal™ West Pico Chemiluminescent Substrate, Thermo Scientific; 34080). After incubation for 15 minutes in the dark, the chemiluminescence was measured using a plate reader (EnVision®, Perkin Elmer). Raw data were normalized to percentage activity values using the equation: 100×(Sample−Negative control)/(Positive control−Negative Control).

T1 sequence (P13569 with tags, fused parts or gaps DEL508-508): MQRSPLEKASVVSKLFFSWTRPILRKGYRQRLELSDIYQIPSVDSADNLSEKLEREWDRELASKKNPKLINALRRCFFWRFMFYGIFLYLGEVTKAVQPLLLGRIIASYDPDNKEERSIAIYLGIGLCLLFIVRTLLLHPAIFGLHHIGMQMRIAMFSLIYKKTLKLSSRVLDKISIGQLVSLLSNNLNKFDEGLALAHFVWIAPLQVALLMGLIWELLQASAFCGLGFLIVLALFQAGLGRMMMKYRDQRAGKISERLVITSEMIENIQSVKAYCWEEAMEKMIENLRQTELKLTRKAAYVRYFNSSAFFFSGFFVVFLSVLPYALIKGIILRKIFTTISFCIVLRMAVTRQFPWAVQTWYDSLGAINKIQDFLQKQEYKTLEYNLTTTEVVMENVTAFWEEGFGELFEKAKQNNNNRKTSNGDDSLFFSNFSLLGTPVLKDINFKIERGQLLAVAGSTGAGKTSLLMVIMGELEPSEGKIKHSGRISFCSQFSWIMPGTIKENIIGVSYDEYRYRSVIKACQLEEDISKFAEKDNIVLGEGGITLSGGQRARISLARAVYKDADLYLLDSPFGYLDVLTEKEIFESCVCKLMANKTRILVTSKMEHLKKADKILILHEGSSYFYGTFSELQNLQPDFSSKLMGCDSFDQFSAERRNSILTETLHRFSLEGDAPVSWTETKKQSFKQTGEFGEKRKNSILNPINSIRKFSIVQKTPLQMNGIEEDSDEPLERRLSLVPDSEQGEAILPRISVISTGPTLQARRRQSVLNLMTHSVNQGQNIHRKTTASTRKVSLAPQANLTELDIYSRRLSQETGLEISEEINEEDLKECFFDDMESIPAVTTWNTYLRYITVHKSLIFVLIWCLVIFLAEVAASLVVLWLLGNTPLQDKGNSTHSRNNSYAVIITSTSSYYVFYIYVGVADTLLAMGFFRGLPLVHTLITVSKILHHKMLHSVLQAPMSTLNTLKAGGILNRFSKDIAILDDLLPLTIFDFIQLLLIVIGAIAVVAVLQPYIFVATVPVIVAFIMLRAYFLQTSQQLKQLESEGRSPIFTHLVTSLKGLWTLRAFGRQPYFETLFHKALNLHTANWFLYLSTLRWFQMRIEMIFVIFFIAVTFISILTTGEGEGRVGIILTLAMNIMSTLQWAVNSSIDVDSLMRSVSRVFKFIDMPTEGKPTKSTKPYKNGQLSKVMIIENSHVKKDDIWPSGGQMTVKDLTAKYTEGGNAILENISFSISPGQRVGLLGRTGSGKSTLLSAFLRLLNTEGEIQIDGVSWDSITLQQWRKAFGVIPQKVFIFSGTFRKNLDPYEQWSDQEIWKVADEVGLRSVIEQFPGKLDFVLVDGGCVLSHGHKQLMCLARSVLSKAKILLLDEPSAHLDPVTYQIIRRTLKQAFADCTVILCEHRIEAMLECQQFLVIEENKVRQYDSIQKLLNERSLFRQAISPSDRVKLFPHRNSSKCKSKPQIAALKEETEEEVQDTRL

CC(C)N1CCCN(c2cc(C(=O)O)nc3c2c(C2CCC2)nn3-c2ccccc2)CC1 [compound 691, 3-cyclobutyl-1-phenyl-4-[4-(propan-2-yl)-1,4-diazepan-1-yl]-1H-pyrazolo[3,4-b]pyridine-6-carboxylic acid]
% Activation: 280.7% | EC50: 5000 nM

CN1CCN(CCC2CCN(c3cc(C(=O)O)nc4c3c(C3CCC3)nn4-c3ccccc3)CC2)CC1 [compound 695, 3-cyclobutyl-4-{4-[2-(4-methylpiperazin-1-yl)ethyl]piperidin-1-yl}-1-phenyl-1H-pyrazolo[3,4-b]pyridine-6-carboxylic acid]
% Activation: 385.5% | EC50: 119 nM

CCOCC(=O)N1CCN(c2cc(C(=O)O)nc3c2c(C2CCC2)nn3-c2ccccc2)CC1 [compound 696, 3-cyclobutyl-4-[4-(ethoxyacetyl)piperazin-1-yl]-1-phenyl-1H-pyrazolo[3,4-b]pyridine-6-carboxylic acid]
% Activation: 346.8% | EC50: 1670 nM

O=C(O)c1cc(N2CCC[C@@H](N3CCCC3=O)C2)c2c(C3CCC3)nn(-c3ccccc3)c2n1 [compound 697, 3-cyclobutyl-4-[(3R)-3-(2-oxopyrrolidin-1-yl)piperidin-1-yl]-1-phenyl-1H-pyrazolo[3,4-b]pyridine-6-carboxylic acid]
% Activation: 217.3% | EC50: 1270 nM

CC1(N2CCCCC2)CCN(c2cc(C(=O)O)nc3c2c(C2CCC2)nn3-c2ccccc2)CC1 [compound 698, 3-cyclobutyl-4-(4′-methyl [1,4′-bipiperidin]-1′-yl)-1-phenyl-1H-pyrazolo[3,4-b]pyridine-6-carboxylic acid]
% Activation: 242.7% | EC50: 745 nM

O=C(O)c1cc(N2CCC3(CC2)OCCO3)c2c(C3CCC3)nn(-c3ccccc3)c2n1 [compound 700, 3-cyclobutyl-4-(1,4-dioxa-8-azaspiro[4.5]decan-8-yl)-1-phenyl-1H-pyrazolo[3,4-b]pyridine-6-carboxylic acid]
% Activation: 290.9% | EC50: 128 nM

CC(C)COC(=O)N1CCN(c2cc(C(=O)O)nc3c2c(C2CCC2)nn3-c2ccccc2)CC1 [compound 701, 3-cyclobutyl-4-{4-[(2-methylpropoxy)carbonyl]piperazin-1-yl}-1-phenyl-1H-pyrazolo[3,4-b]pyridine-6-carboxylic acid]
% Activation: 498.5% | EC50: 36.1 nM

CN1CCCN(c2cc(C(=O)O)nc3c2c(C2CCC2)nn3-c2ccccc2)CC1 [compound 702, 3-cyclobutyl-4-(4-methyl-1,4-diazepan-1-yl)-1-phenyl-1H-pyrazolo[3,4-b]pyridine-6-carboxylic acid]
% Activation: 214.1% | EC50: 1670 nM

CC(=O)N1CCN(c2cc(C(=O)O)nc3c2c(C2CCC2)nn3-c2ccccc2)CC1 [compound 703, 4-(4-acetylpiperazin-1-yl)-3-cyclobutyl-1-phenyl-1H-pyrazolo[3,4-b]pyridine-6-carboxylic acid]
% Activation: 374.6% | EC50: 386 nM

COCCCN1CCN(c2cc(C(=O)O)nc3c2c(C2CCC2)nn3-c2ccccc2)CC1 [compound 704, 3-cyclobutyl-4-[4-(3-methoxypropyl)piperazin-1-yl]-1-phenyl-1H-pyrazolo[3,4-b]pyridine-6-carboxylic acid]
% Activation: 344.1% | EC50: 409 nM

O=C(O)c1cc(N2CCCN(C3CCCC3)CC2)c2c(C3CCC3)nn(-c3ccccc3)c2n1 [compound 705, 3-cyclobutyl-4-(4-cyclopentyl-1,4-diazepan-1-yl)-1-phenyl-1H-pyrazolo[3,4-b]pyridine-6-carboxylic acid]
% Activation: 249.8% | EC50: 1670 nM

O=C(O)c1cc(N2CCC[C@@H](O)C2)c2c(C3CCC3)nn(-c3ccccc3)c2n1 [compound 706, 3-cyclobutyl-4-[(3R)-3-hydroxypiperidin-1-yl]-1-phenyl-1H-pyrazolo[3,4-b]pyridine-6-carboxylic acid]
% Activation: 284.4% | EC50: 488 nM
